Measured values published in patent publication US20230339977A1, “SUBSTITUTED HETEROARYL COMPOUND, AND COMPOSITION AND APPLICATION THEREOF” (SUNSHINE LAKE PHARMA CO., LTD., priority 2020, published 2023).
Read-outs that look alike come from different tables or passages of the source.

How the values were obtained:
JAK1/TYK2 = test: Cell level activity test of JAK1/TYK2 (IFN-α induced STAT3 phosphorylation in PBMC); assay type: cell-based; conditions: Homo sapiens; P-STAT3 by ELISA in PBMC, compound 1 h, IFN-α 5000 U/mL 15 min; read-out: IC50 nM (JAK 1 /TYK2)
Description: IFN-α can induce the phosphorylation of STAT3 downstream of JAK1/TYK2 in PBMC, and by measuring the level of STAT3 phosphorylation, the activity of the compound on JAK1/TYK2 at the cell level can be reflected.
Whole blood was collected from healthy subjects, anticoagulated with heparin sodium, and PBMC (human peripheral blood mononuclear cells) were extracted. PBMC were seeded in a 96-well culture plates at a density of 1*106/well. Positive wells and negative wells were added with the same volume of DMSO as the compound, and the final concentration of DMSO was 0.5%. The compounds were incubated with the cells at 37° C. for 1 h, and then stimulated by adding IFN-α at a final concentration of 5000 U/mL, an equal volume of medium was added to the negative wells, and incubated for 15 min. The cells were centrifuged to remove the supernatant, then lysed, and P-STAT3 was measured according to the instructions of the ELISA kit, the absorbance was read at 450 nm, and the IC50 value or inhibition rate was calculated.

[1] = Pharmacokinetic evaluation in rats after intravenous injection and oral administration; assay type: in vivo; conditions: rat, plasma; for AUC(0-t): read-out: PK AUClast; for Cmax: read-out: PK Cmax; for half-life: read-out: PK T½ (converted)
Description: The analytical LC/MS/MS system includes an Agilent 1200 series vacuum degasser, a binary syringe pump, an orifice plate autosampler, a column oven, and an Agilent G6430 triple quadrupole mass spectrometer with an electrospray ionization (ESI) source.
Agilent XDB-C18, 2.1 × 30 mm, 3.5 µM column was used to analysis, 5 µL sample was injected. Analytical conditions: Mobile phases were 0.1% formic acid in water (A) and 0.1% formic acid in methanol (B). The flow rate was 0.4 mL/min.
In addition, Agilent 6330 series LC/MS/MS spectrometer was used for analysis, equipped with G1312A binary syringe pump, G1367A automatic sampler and G1314C UV detector; LC/MS/MS spectrometer used ESI radiation source. Optimum analysis was achieved using standards with appropriate cation model processing and MRM conversion for each analyte. A Capcell MP-C18 column, 100 × 4.6 mm I.D., 5 µM (Phenomenex, Torrance, California, USA) was used during the analysis. Mobile phase was 5 mM ammonium acetate, 0.1% methanol in water (A): 5 mM ammonium acetate, 0.1% methanol in acetonitrile (B) (70/30, v/v); flow rate was 0.6 mL/min; column temperature was maintained at room temperature; 20 µL of sample was injected.
The present invention evaluates the pharmacokinetic studies of the compounds of the present invention in mice, rats, dogs or monkeys. The compounds of the present invention were administered in the form of aqueous solution or 2% HPMC + 1% Tween-80 aqueous solution, 5% DMSO + 5% saline solution, 4% MC or capsule. For intravenous administration, animals were dosed at about 0.5, 0.6, 1 or 2 mg/kg. The oral doses (p.o.) were 5 or 10 mg/kg for rats and mice, and 10 mg/kg for dogs and monkeys. Bloods (0.3 mL) were taken at time points 0.25, 0.5, 1.0, 2.0, 3.0, 4.0, 6.0, 8.0, 12 and 24 h and centrifuged at 3,000 or 4,000 rpm for 10 min. Plasma solutions were collected and stored at -20° C. or -70° C. until LC/MS/MS analysis as described above. […] Table 2 is the experimental results of the pharmacokinetic characteristics of the compounds provided in the examples of the present invention in rats.

IC50 (JAK1/TYK2) | Structure (SMILES) | further results
52.7 nM | COC1(c2cccc(-c3cn(C)c4cnc(NC(C)=O)cc34)n2)CCOC1 (centres unmarked) [Control compound, reference compound] | –
178 nM | COc1cc(-c2cn(C)c3cnc(NC(C)=O)cc23)nc2c1CCOC21CCOC1 (centres unmarked) [Example 5, N-(3-(4′-Methoxy-4,5,5′,6′-Tetrahydro-2H-Spiro[Furan-3,8′-Pyrano[3,4-b]Pyridin]-2′-yl)-1-Methyl-1H-Pyrrolo[2,3-c]Pyridin-5-yl)Acetamide] | –
14.1 nM | CC(=O)Nc1cc2c(-c3cc(C(F)F)c4c(n3)C3(CCOC3)OCC4)cn(C)c2cn1 (centres unmarked) [Example 7, N-(3-(4′-(Difluoromethyl)-4,5,5′,6′-Tetrahydro-2H-Spiro[Furan-3,8′-Pyrano[3,4-b]Pyridin]-2′-yl)-1-Methyl-1H-Pyrrolo[2,3-c]Pyridin-5-yl)Acetamide] | –
41.2 nM | COCc1cc(-c2cn(C)c3cnc(NC(C)=O)cc23)nc2c1CCOC21CCOC1 (centres unmarked) [Example 8, N-(3-(4′-(Methoxymethyl)-4,5,5′,6′-Tetrahydro-2H-Spiro[Furan-3,8′-Pyrano[3,4-b]Pyridin]-2′-yl)-1-Methyl-1H-Pyrrolo[2,3-c]Pyridin-5-yl)Acetamide] | –
114 nM | CC(=O)Nc1cc2c(-c3ccc4c(n3)C3(CCOC3)OCN4C)cn(C)c2cn1 (centres unmarked) [Example 9, N-(1-Methyl-3-(1′-Methyl-1′,2′,4,5-Tetrahydro-2Hspiro[Furan-3,4′-Pyrido[3,2-d][1,3]Oxazin]-6′-yl)-1H-Pyrrolo[2,3-c]Pyridin-5-yl)Acetamide] | –
> 1000 nM | CC(=O)Nc1cc2c(-c3ccc4c(n3)C3(CCOC3)OC(=O)N4C)cn(C)c2cn1 (centres unmarked) [Example 10, N-(1-Methyl-3-(1′-Methyl-2′-Oxo-1′,2′,4,5-Tetrahydro-2H-Spiro[Furan-3,4′-Pyrido[3,2-d][1,3]Oxazin]-6′-yl)-1H-Pyrrolo[2,3-c]Pyridin-5-yl)Acetamide] | –
> 1000 nM | CC(=O)Nc1cc2c(-c3ccc4c(n3)C3(CCCOC3)OC4)cn(C)c2cn1 (centres unmarked) [Example 11, N-(3-(5′,6′-Dihydro-2′H,4′H,5H-Spiro[Furo[3,4-b]Pyridin-7,3′-Pyran]-2-yl)-1-Methyl-1H-Pyrrolo[2,3-c]Pyridin-5-yl)Acetamide] | –
104 nM | CC(=O)Nc1cc2c(-c3ccc4c(n3)C3(CCOC3)OC(C)(C)N4C)cn(C)c2cn1 (centres unmarked) [Example 13, N-(1-Methyl-3-(1′,2′,2′-Trimethyl-1′,2′,4,5-Tetrahydro-2H-Spiro[Furan-3,4′-P yrido[3,2-d][1,3]Oxazin]-6′-yl)-1H-Pyrrolo[2,3-c]Pyridin-5-yl)Acetamide] | –
48.6 nM | COCCOc1cc(-c2cn(C)c3cnc(NC(C)=O)cc23)nc2c1CCOC21CCOC1 (centres unmarked) [Example 15, N-(3-(4′-(2-Methoxyethoxy)-4,5,5′,6′-Tetrahydro-2H-Spiro[Furan-3,8′-Pyrano [3,4-b]Pyridin]-2′-yl)-1-Methyl-1H-Pyrrolo[2,3-c]Pyridin-5-yl)Acetamide] | –
126 nM | CC(=O)Nc1cc2c(-c3cc(OC(C)C)c4c(n3)C3(CCOC3)OCC4)cn(C)c2cn1 (centres unmarked) [Example 17, N-(3-(4′-Isopropoxy-4,5,5′,6′-Tetrahydro-2H-Spiro[Furan-3,8′-Pyrano[3,4-b]P yridine]-2′-yl)-1-Methyl-1H-Pyrrolo[2,3-c]Pyridin-5-yl)Acetamide] | –
19.6 nM | CC(=O)Nc1cc2c(-c3ccc4c(n3)C3(CCOC3)OCC4(F)F)cn(C)c2cn1 (centres unmarked) [Example 18, N-(3-(5′,5′-Difluoro-4,5,5′,6′-Tetrahydro-2H-Spiro[Furan-3,8′-Pyrano[3,4-b]P yridine]-2′-yl)-1-Methyl-1H-Pyrrolo[2,3-c]Pyridin-5-yl)Acetamide] | –
115 nM | CC(=O)Nc1cc2c(-c3cc(OCCN(C)C)c4c(n3)C3(CCOC3)OCC4)cn(C)c2cn1 (centres unmarked) [Example 19, N-(3-(4′-(2-(Dimethylamino)Ethoxy)-4,5,5′,6′-Tetrahydro-2H-Spiro[Furan-3,8′ -Pyrano[3,4-b]Pyridine]-2′-yl)-1-Methyl-1H-Pyrrolo[2,3-c]Pyridin-5-yl)Acetamide] | –
36.9 nM | CC(=O)Nc1cc2c(-c3cc(Cl)c4c(n3)C3(CCOC3)OCC4)cn(C)c2cn1 (centres unmarked) [Example 21, N-(3-(4′-Chloro-4,5,5′,6′-Tetrahydro-2H-Spiro[Furan-3,8′-Pyrano[3,4-b]Pyridine]-2′-yl)-1-Methyl-1H-Pyrrolo[2,3-c]Pyridin-5-yl)Acetamide] | –
7.23 nM | COCCCOc1cc(-c2cn(C)c3cnc(NC(C)=O)cc23)nc2c1CCOC21CCOC1 (centres unmarked) [Example 22, N-(3-(4′-(3-Methoxypropoxy)-4,5,5′,6′-Tetrahydro-2H-Spiro[Furan-3,8′-Pyrano[3,4-b]Pyridin]-2′-yl)-1-Methyl-1H-Pyrrolo[2,3-c]Pyridin-5-yl)Acetamide] | –
104 nM | CC(=O)Nc1cc2c(-c3cc(S(C)(=O)=O)c4c(n3)C3(CCOC3)OCC4)cn(C)c2cn1 (centres unmarked) [Example 23, N-(1-meThyl-3-(4′-(Methylsulfonyl)-4,5,5′,6′-Tetrahydro-2H-Spiro[Furan-3,8′-Pyrano[3,4-b]Pyridin]-2′-yl)-1H-Pyrrolo[2,3-c]Pyridin-5-yl)Acetamide] | –
29.9 nM | CC(=O)Nc1cc2c(-c3cc(N(C)C)c4c(n3)C3(CCOC3)OCC4)cn(C)c2cn1 (centres unmarked) [Example 24, N-(3-(4′-(Dimethylamino)-4,5,5′,6′-Tetrahydro-2H-Spiro[Furan-3,8′-Pyrano[3,4-b]Pyridin]-2′-yl)-1-Methyl-1H-Pyrrolo[2,3-c]Pyridin-5-yl)Acetamide] | –
45.5 nM | CC(=O)Nc1cc2c(-c3cc(C#N)c4c(n3)C3(CCOC3)OCC4)cn(C)c2cn1 (centres unmarked) [Example 25, N-(3-(4′-Cyano-4,5,5′,6′-Tetrahydro-2H-Spiro[Furan-3,8′-Pyrano[3,4-b]Pyridine]-2′-yl)-1-Methyl-1H-Pyrrolo[2,3-c]Pyridin-5-yl)Acetamide] | –
93.1 nM | CC(=O)Nc1cc2c(-c3cc(OCCCN(C)C)c4c(n3)C3(CCOC3)OCC4)cn(C)c2cn1 (centres unmarked) [Example 29, N-(3-(4′-(3-(Dimethylamino)Propoxy)-4,5,5′,6′-Tetrahydro-2H-Spiro[Furan-3, 8′-Pyrano[3,4-b]Pyridin]-2′-yl)-1-Methyl-1H-Pyrrolo[2,3-c]Pyridin-5-yl)Acetamide] | –

Structure (SMILES) | IC50 (JAK1/TYK2) | further results
CCCCOc1cc(-c2cn(C)c3cnc(NC(C)=O)cc23)nc2c1CCOC21CCOC1 (centres unmarked) [Example 20, N-(3-(4′-Butoxy-4,5,5′,6′-Tetrahydro-2H-Spiro[Furan-3,8′-pyrAno[3,4-b]Pyridine]-2′-yl)-1-Methyl-1H-Pyrrolo[2,3-c]Pyridin-5-yl)Acetamide] | 64.9 nM | –
CC(=O)Nc1cc2c(-c3cc(OCCC(C)(C)O)c4c(n3)C3(CCOC3)OCC4)cn(C)c2cn1 (centres unmarked) [Example 26, N-(3-(4′-(3-Hydroxy-3-Methylbutoxy)-4,5,5′,6′-Tetrahydro-2H-Spiro[Furan-3, 8′-Pyrano[3,4-b]Pyridin]-2′-yl)-1-Methyl-1H-Pyrrolo[2,3-c]Pyridin-5-yl)Acetamide] | 110 nM | AUC(0-t) ([1]; IV 2 mg/kg): 494 ng·h/mL; Cmax ([1]; IV 2 mg/kg): 289 ng/mL; half-life ([1]; IV 2 mg/kg): 1.65 h; AUC(0-t) ([1]; PO 5 mg/kg): 2290 ng·h/mL; Cmax ([1]; PO 5 mg/kg): 612 ng/mL; half-life ([1]; PO 5 mg/kg): 3.62 h; bioavailability ([1]; oral bioavailability, PO 5 mg/kg): 98.5%
COC(C)(C)CCOc1cc(-c2cn(C)c3cnc(NC(C)=O)cc23)nc2c1CCOC21CCOC1 (centres unmarked) [Example 27, N-(3-(4′-(3-Methoxy-3-Methylbutoxy)-4,5,5′,6′-Tetrahydro-2H-Spiro[Furan-3, 8′-Pyrano[3,4-b]Pyridin]-2′-yl)-1-Methyl-1H-Pyrrolo[2,3-c]Pyridin-5-yl)Acetamide] | 13.1 nM | –
COCCCCOc1cc(-c2cn(C)c3cnc(NC(C)=O)cc23)nc2c1CCOC21CCOC1 (centres unmarked) [Example 28, N-(3-(4′-(4-Methoxybutoxy)-4,5,5′,6′-Tetrahydro-2H-Spiro[Furan-3,8′-Pyrano[3,4-b]Pyridin]-2′-yl)-1-Methyl-1H-Pyrrolo[2,3-c]Pyridin-5-yl)Acetamide] | 12.9 nM | –
